Laboratory results taken from patent US20240299334A1, “PHARMACEUTICAL COMPOSITION OF NAPHTHALENE DERIVATIVES AS MULTI-TARGETED THERAPEUTIC AGENTS FOR THE TREATMENT OF ALZHEIMER'S DISEASE” (CENTRO DE NEUROCIENCIAS DE CUBA, CNEURO, priority 2020, published 2024).

Columns and labels:
[1] = test system: amnesia induced by the acute administration of scopolamine; test: Object discrimination test, intranasal administration, acute ESC; format: in vivo, mice; conditions: nasal formulation, single intranasal dose (74 μg/kg); ESC 1.5 mg/kg ip; vs control groups
Description: Male C57BL/6 mice (20-25 g), supplied by the National Center for the Laboratory Animals Production (CENPALAB, Cuba) were used. The conditions of adaptation and maintenance of the animals before carrying out the experiment were similar to those developed in non-limiting Example 4.
At the end of the adaptation period, the animals were randomly distributed according to their body weights in four experimental groups of 10 animals each: two healthy control groups, one administered with a vehicle via the nasal route (G1) and the other with saline solution via. ip (G2); a sick control group, administered with nasal saline and then, with ESC dissolved in saline solution (1.5 mg/kg, ip) (G3) and a treated group, administered with compound 3 prepared according to the formulation of non-limiting Example 10 and after 15 minutes the ESC is administered (1.5 mg/kg, ip) (G4). This experiment was carried out in two experimental series under the same conditions described in order to study the effects of the nasal formulation of compound 3 in two behavioral models: Y-maze in the hidden arm modality and the object discrimination model. […]
The Object Recognition Test (ORT) is a commonly used behavioral test for the investigation of various aspects of learning and memory, particularly recognition memory, in rodent models of CNS disorders. […] The behavior of the animal was recorded using a video camera. […]

[2] = test system: memory loss induced by an acute administration of scopolamine (ESC); test: Morris water maze, two-day protocol, acute ESC model; format: in vivo, mice; conditions: long-term spatial memory
Experimental: Young male OF-1 mice (20-25 g), supplied by the National Center for the Laboratory Animals Production (CENPALAB, Cuba), were used. Before the experiment, the animals were adapted for seven days to laboratory conditions (controlled temperature 25±2° C., relative humidity 60±10% and light/dark cycles of 12 h). During this period, and during the experiment, the animals received ad libitum water and a standard diet for rodents supplied by CENPALAB. All procedures were carried out in accordance with the European Commission guidelines for the use and care of laboratory animals and approved by the Committee for the Care of Research Animals. The minimum number of animals and duration of observations required to obtain consistent data was used.
At the end of the adaptation period, the animals were randomly distributed according to their body weights in 5 experimental groups of 12 animals per group. […]
The experience was carried out for two days; a first day of training and a second day of testing. […] 24 hours after the last visible platform test (D2), the animals were evaluated in a series of three tests with the hidden platform (T1-T3). […]
All data are expressed as the mean±standard error of the mean (SEM). The Morris water maze data was analyzed in two ways. Escape latencies in the visible platform training phase were analyzed using a two-factor ANOVA (treatment×trial). […]

For `CSC(=S)NCCNC(=O)CCC(=O)Nc1cccc2ccccc12` [compound 3, methyl(2-{[4-(1-naphthylamino)-4-oxobutanoyl]amino}ethyl)dithiocarbamate], the “discrimination index (DI) of the novel object” value [1] was “No significant differences were observed in the discrimination index” and the “difference and ratio of escape latency, last visible-platform test vs first hidden-platform test” value [2] was “differs significantly from the group with ESC”.
